The source of these data is patent publication US8669257B2, “Phenazine derivatives and uses thereof as potassium channel modulators” (The Johns Hopkins University, priority 2007, dated 2014).

“Also recorded” adds a separate entry of the source. Read-outs that look alike come from different tables or passages of the source.

Assay [1] concerns IL-2 production in Jurkat T-cells. Briefly: IL-2 secreted from stimulated Jurkat T-cells (ELISA). To be noted: Homo sapiens; PMA/thapsigargin-stimulated Jurkat T-cells, FIG. 1B, n=6. Format: cell-based. As for the experimental part:
Jurkat E6.1 T-cells (1×10^5 in 180 μl) were seeded into 96-well plates. Cells in each well were treated with different concentrations of clofazimine for 1 h before 1 μM ionomycin and 40 nM PMA were added. The incubation was continued for 2 days. The plates were centrifuged at 1,200×g for 5 min, and the supernatant from each well was collected followed by ELISA detection of IL-2. The primary antibody, biotinylated secondary antibody and HRP conjugated avidin were purchase from BD/Pharmingen.
For orientation: An ELISA detects its analyte on a solid surface through an enzyme-linked reagent.

In assay [2] the test system is human mixed lymphocyte reaction. As to the kind of experiment: Human mixed lymphocyte reaction (MLR), [3H]-thymidine incorporation. Format: cell-based. Conditions: FIG. 1B, n=6. On the procedure: The human MLR was established by coculturing normal human PBMN responder lymphocytes (0.5×10^6) with an equal number of miomycin C-treated stimulator cells in RPMI1640 complete medium. The cells were incubated with varying doses of clofazimine at 37° C. in a humidified atmosphere of 5% CO2 for 4 days. Then 1 μCi of [^3H]-thymidine was added into culture and incubation was continued for 6 h. The cells were harvested and [^3H]-thymidine incorporated into cells was measured in a liquid scintillation counter.

The subject of a further assay is NFAT luciferase reporter. Briefly: NFAT luciferase reporter assay in Jurkat T-cells. Format: cell-based. To be noted: Homo sapiens, PMA/ionomycin, FIG. 1C, n=6. (A reporter such as luciferase makes a cellular process visible.)
The subject of assay [3] is NF-κB luciferase reporter. Briefly: NF-κB luciferase reporter assay in Jurkat T-cells. In kind it is cell-based, human. To be noted: FIG. 1C.
For assay [4], the system named is calcineurin-NFATc2 interaction. Briefly: GST-NFATc2 pull-down of calcineurin. Format: binding.
The target of assay [5] is T1, calcineurin-NFATc2 interaction (Homo sapiens, UniProt P16298+Q13469, H160N).
T1 construct: calcineurinA (1-400, H160N) and NFATc2 (1-415) in Jurkat T-cells; expressed in transfected cells; host or cells: Jurkat T-cells
Briefly: Mammalian two-hybrid assay of calcineurin and NFATc2 in Jurkat T-cells. In kind it is cell-based.

The target in the next assay is T2, mouse Kv1.1 (Mus musculus, UniProt P16388).
T2 construct: expressed in transfected cells; host or cells: L929 cells
As to the kind of experiment: Patch-clamp of mouse Kv1.1 stably expressed in L929 cells. Format: cell-based. As for the experimental part:
Patch pipettes, pulled from glass capillaries (inner diameter 1.5 mm, Kimble products) with a horizontal puller (Sutter instruments, Modell P-97), were fire-polished, and had resistances between 2 and 4 MOhm. Patch-clamp experiments were performed in the tight-seal whole-cell configuration at room temperature (22-24° C.). High-resolution current recordings were acquired by a computer-based patch-clamp amplifier system (EPC-9, HEKA). Immediately following establishment of the whole-cell configuration, every two seconds voltage ramps of 50 ms duration spanning the voltage range of −100 to +100 mV for Jurkat T-cells and −150 to +150 mV for HEK293 were delivered from a holding potential (Vh) of −70 mV for Jurkats and 0 mV for HEK293 cells over a period of 300-600 s. […] Capacitive currents and series resistance were determined and corrected before each voltage ramp using the automatic capacitance compensation of the EPC-9. […] Kv1.3 currents in Jurkat T-cells were measured at +80 mV. Heterologously expressed Kv1.1, Kv1.2, Kv1.3, Kv1.5 and Kv3.1 were assessed at +80 mV except in Figure S7, where currents were additionally measured at the more physiological voltage of 0 mV. CRAC currents in HEK293 cells were assessed at −80 mV. […]

The test system of assay [6] is human foreskin graft in Pfp/Rag2−/− mice with human PBL. Briefly: Human T-cell-mediated human skin graft rejection in immunodeficient mice. In kind it is in vivo, mouse. An excerpt: Kv1.3 has been implicated in T-cell activation and has served as a molecular target for developing novel immunosuppressive agents. Given that clofazimine is already used in the clinic, albeit for a completely different indication, we wondered whether it is efficacious in animal models of organ transplantation. […] These negative results are not surprising given that Kv1.3 plays distinct roles in humans and rodents, as it has been shown that Kv1.3 is dispensable in mice due to the up-regulation of other chloride channels. […] To overcome this problem, we turned to a model of reconstituted human T-cell-mediated human skin rejection in immunodeficient mice. We thus transplanted human foreskin into Pfb-Rag2−/− mice that lack T, B and NK cells. Upon healing of the skin graft for about 7 days, a total of 100 million human peripheral blood lymphocytes from an unrelated donor were adoptively transferred into the same animals. The animals were treated orally with either DMSO (control) or clofazimine at 50 mg/kg/day for a total of 10 days (FIG. 5A). For the control group, the transplanted foreskin was rejected with a median survival time of 11 days (FIG. 5B).
The experimental procedure is similar to that described previously. Clofazimine suspension in olive oil was administered p.o. at 50 mg/kg/day in a total volume of 0.2 ml per administration.

For another assay, the system named is murine skin transplant. Briefly: Mouse skin transplantation with adoptive transfer of murine cells (parallel experiment). Format: in vivo. Conditions: murine skin and total murine T-cells. An excerpt: FIG. 5. […] (A) Representative skin grafts at different days post-transplantation. Human foreskin was transplanted onto Pfp/Rag2−/− mice. 1.0×10^8 human peripheral blood lymphocytes (PBL) were adoptively transferred into each animal at Day 7 post-transplantation. Administration of clofazimine or carrier control (olive oil) was also initiated at Day 7. * Days after skin transplantation/cell transfer. (B) Effect of clofazimine on the mean survival time of transplanted human (n=5) and mouse (n=4) skin grafts. The mouse skin transplantation was performed using Balb/c mice as skin donors, B6 Rag1−/− mice as recipients and PBL from B6 for adoptive transfer.

Another assay deals with mouse primary T-cells. Briefly: IL-2 production from anti-CD3/anti-CD28-stimulated mouse primary T-cells. To be noted: n=3. Format: cell-based.
The subject of assay [7] is graft versus host disease. Conditions: open label study; cited from earlier work.

T1 sequence (Q13469 1-415): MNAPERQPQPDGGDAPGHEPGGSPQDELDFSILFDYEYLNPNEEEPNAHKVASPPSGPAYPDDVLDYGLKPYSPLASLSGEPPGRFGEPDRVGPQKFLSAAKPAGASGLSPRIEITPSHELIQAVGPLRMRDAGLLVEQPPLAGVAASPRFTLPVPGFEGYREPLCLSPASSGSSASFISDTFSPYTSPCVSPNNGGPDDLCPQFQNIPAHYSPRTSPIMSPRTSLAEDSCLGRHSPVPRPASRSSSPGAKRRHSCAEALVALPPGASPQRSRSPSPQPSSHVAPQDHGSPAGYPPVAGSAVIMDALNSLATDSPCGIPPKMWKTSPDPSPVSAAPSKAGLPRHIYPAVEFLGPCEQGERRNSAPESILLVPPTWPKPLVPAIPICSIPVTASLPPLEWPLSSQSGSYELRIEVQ
T2 sequence (P16388 whole entry): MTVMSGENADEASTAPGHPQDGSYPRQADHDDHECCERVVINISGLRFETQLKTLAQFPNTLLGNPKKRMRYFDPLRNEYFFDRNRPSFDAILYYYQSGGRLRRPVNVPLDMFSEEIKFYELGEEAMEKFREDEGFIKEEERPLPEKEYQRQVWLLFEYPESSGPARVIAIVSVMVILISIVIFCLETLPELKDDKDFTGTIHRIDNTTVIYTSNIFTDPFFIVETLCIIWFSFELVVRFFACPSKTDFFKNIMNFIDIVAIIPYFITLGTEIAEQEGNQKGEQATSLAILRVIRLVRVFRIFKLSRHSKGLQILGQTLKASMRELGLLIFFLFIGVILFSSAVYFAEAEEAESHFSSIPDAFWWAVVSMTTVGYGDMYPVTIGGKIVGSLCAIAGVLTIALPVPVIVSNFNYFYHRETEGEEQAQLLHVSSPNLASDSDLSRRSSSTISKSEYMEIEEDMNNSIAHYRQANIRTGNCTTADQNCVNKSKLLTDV

As for `CC(C)/N=c1\cc2n(-c3ccc(Cl)cc3)c3ccccc3nc-2cc1Nc1ccc(Cl)cc1` [clofazimine, Clofazimine], the half-inhibitory concentration (IC50) is 1.1 ± 0.26 µM in [1]; 0.9 ± 0.17 µM in assay [2]; 0.113 ± 0.03 µM in the assay with NFAT luciferase reporter; 2.43 ± 1.25 µM in assay [3] (Homo sapiens, Jurkat, PMA/ionomycin, n=6); more than 10 µM on mouse Kv1.1 (inferred from block at 10 μM). Besides, the “NF-κB luciferase reporter less sensitive than IL-2 promoter-driven reporter” value in assay [3] is reported as “about 40 fold”. For the same molecule, the “effect on binding of GST-NFATc2 to calcineurin” value in [4] is “Nor did it affect the binding; also recorded: does not interfere with calcineurin-NFATc2 interaction”. Further, the “effect on calcium-dependent NFAT-calcineurin interaction” value is recorded as “inhibited the calcium-dependent NFAT-calcineurin interaction in a dose-dependent manner” in assay [5] and “inhibits the calcium-dependent enhancement” in [5] (listed as Clofazimine). Further, on mouse Kv1.1 (10 μM), the “block of current, mouse Kv1.1” value is “less than 50%”. Further, in assay [6] (50 mg/kg/day orally for 10 days, n=5), the “mean survival time of transplanted human skin” value came out at 35 days. Besides, the “effect on human T-cell-mediated skin graft rejection” value in assay [6] (immunodeficient mice) is “inhibits human T-cell-mediated skin graft rejection”. In addition, in the assay on murine skin transplant, the “effect on survival of murine skin transplant” value is reported as “no effect on the survival”. In the assay on mouse primary T-cells, the “inhibition of IL-2 production in primary mouse T-cells” value is given as “failed to observe a dose-dependent inhibition”. The “patients able to decrease the amount of other medication” value in assay [7] is recorded as approximately 25%.

One may read the IC50 as the concentration that gives 50% inhibition.
